Data published in paper PMC7044140, “Comparative studies on similarities and differences of cyclodipeptide oxidases for installation of C–C double bonds at the diketopiperazine ring” (Applied Microbiology and Biotechnology, 2020).

Legend:
CDO-Np (CDO-NpA/CDO-NpB) = biological target: T1, CDO-Np (CDO-NpA/CDO-NpB) (Nocardiopsis sp. L17-MgMaSL7, UniProt A0A317LX08+A0A317LXS7); assay: LC-MS/HPLC product formation with E. coli crude extract; format: biochemical; conditions: 1 mM substrate, 1 mM phenazine methosulfate, pH 7.5, 40 °C; dehydrogenation
T1 construct: gene BDW27_11054; desalted crude extract
T1 sequence (A0A317LXS7 1-185): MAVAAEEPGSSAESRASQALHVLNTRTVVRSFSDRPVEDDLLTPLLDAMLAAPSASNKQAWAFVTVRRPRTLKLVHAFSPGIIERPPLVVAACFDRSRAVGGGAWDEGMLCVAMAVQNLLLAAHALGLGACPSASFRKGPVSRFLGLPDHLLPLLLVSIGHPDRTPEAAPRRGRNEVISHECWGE
T1 sequence (A0A317LX08 1-105): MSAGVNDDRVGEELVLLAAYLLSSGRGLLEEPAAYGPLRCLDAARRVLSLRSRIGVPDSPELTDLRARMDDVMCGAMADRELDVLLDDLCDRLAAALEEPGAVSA

AlbA/B = biological target: T2, AlbA/B (Streptomyces noursei, UniProt Q8GED8+Q8GED9); assay: as above; format: biochemical; conditions: 1 mM substrate, 1 mM phenazine methosulfate, pH 7.5, 40 °C; dehydrogenation
T2 construct: both subunits co-expressed from overlapping genes in pQE-60 (pKB90) in E. coli SG 13009; desalted crude extract; CDOs described as multimers above 2000 kDa, estimated B to A ratio 1:10
T2 sequence (Q8GED9 whole entry): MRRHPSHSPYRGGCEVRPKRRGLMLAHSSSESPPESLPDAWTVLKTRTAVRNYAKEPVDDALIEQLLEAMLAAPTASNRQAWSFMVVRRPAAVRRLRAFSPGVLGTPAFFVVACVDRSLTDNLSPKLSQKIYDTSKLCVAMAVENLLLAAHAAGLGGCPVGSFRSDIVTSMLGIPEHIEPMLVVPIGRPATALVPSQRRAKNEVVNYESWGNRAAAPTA
T2 sequence (Q8GED8 whole entry): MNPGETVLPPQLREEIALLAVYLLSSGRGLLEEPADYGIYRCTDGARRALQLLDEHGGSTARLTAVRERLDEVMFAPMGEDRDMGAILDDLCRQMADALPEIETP

Structure (SMILES) | LC-MS/HPLC product formation with E. coli crude extract (CDO-Np (CDO-NpA/CDO-NpB)) | LC-MS/HPLC product formation with E. coli crude extract (AlbA/B)
CC(C)C[C@@H]1NC(=O)[C@H](Cc2ccccc2)NC1=O [1a, cyclo-L-Phe-L-Leu] | CDO-Np showed very high activity toward 1a and 2a | 
O=C1N[C@@H](Cc2ccc(O)cc2)C(=O)N[C@H]1Cc1ccccc1 [2a, cyclo-L-Phe-L-Tyr] | In vitro incubation of 2a with CDO-Np led to an almost complete conversion to 2d | The behavior of AlbA/B with 2a was similar to CDO-Np with 3a and 5a
O=C1N[C@@H](Cc2c[nH]c3ccccc23)C(=O)N[C@H]1Cc1ccc(O)cc1 [3a, cyclo-L-Trp-L-Tyr] |  | Only one didehydrogenated product 3b or 5b was detected in the reaction mixtures of AlbA/B
